Here are results for 15 compounds from US8592403B2, “Diazepine and diazocane compounds as MC4 agonists” (Pfizer Limited, priority 2008, dated 2013).

Molecules are shown by their SMILES.

Data set [1] in a line: In vitro metabolism rate determination, human liver microsome (HLM) assay. The following applies: human, liver microsomes, read-out: HLM: Clint, app. Type of data set: in vitro ADME. Put shortly: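 Human liver microsomes at 0.5 nmol cytochrome P450/ml with 1 μM substrate, pre-warmed 5 min at 37° C, reaction started with NADP; samples taken 0–60 min and terminated. Substrate loss measured; first-order rate constant from log-linear regression converted to half-life or Clint (μl/min/mg protein).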

The target of data set [2] is T1, MC4 receptor (MC4R) (Homo sapiens, UniProt P32245).
T1 construct: expressed in transfected cells; host or cells: CHO-CRE MC4R cells (membranes)
Put plainly: Nle4, D-Phe7-α-MSH inhibition at the MC4 receptor (competition binding, SPA, CHO-CRE MC4R membranes). The source says:
Nle4, D-Phe7-α-MSH Inhibition at the MC4 Receptor
Nle4, D-Phe7-α-MSH is a stable analogue of melanocyte-stimulating hormone (MSH), which is an agonist at the MC4 receptor (MC4R). Compounds can be evaluated for their ability to inhibit Nle4, D-Phe7-α-MSH binding to membranes from cells expressing the MC4R using a competition binding assay versus [^125I] Nle4, D-Phe7-α-MSH.
Cells expressing the MC4R were subject to homogenisation and the membrane fragment isolated by differential centrifugation. CHO-CRE MC4R cell membranes were coupled to PVT-PEI-WGA SPA Beads type A for 2 hours, spun at 1000 RPM for 5 min and suspended to a concentration of 300 ug bead/ml (0.15 ug membrane, 15 ug bead per well). Bead/membrane mix was incubated with 0.06 nM [^125I] Nle4, D-Phe7-α-MSH and 11 half-log concentrations of competitor ligand, in duplicate, in a total volume of 50 μl buffer per well (25 mM HEPES, 1 mM MgCl2, 2.5 mM CaCl2, 1% Pluronic F68, 1 complete EDTA protease inhibitor tablet/50 ml pH7). Non-specific binding was determined by the inclusion of 100 nM SHU9119. The reaction was initiated by the addition of bead/membranes and plates were incubated at room temperature for 12 hours (the first hour on a plate shaker), after which the amount of radioactivity present was determined using a Wallac plate counter. Ki values were determined by data analysis using appropriate software.

The target of data set [3] is T2, CYP3A4 (Homo sapiens, UniProt P08684).
T2 construct: utilizes human liver microsomes together with isoform-specific clinical drug probes; from tissue; host or cells: human liver microsomes
Put plainly: High density DDI 3 μM cocktail screen in human liver microsomes, midazolam probe. Format: in vitro ADME. The following applies: human, liver microsomes, probe midazolam, read-out: % inhibition 3A4 @ 3 μM. In a few lines: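 Pooled human liver microsomes incubated with isoform-specific clinical probe substrates as a cocktail (midazolam for CYP3A4), with or without test compound at 3 μM. Metabolite formation followed over time by LC-MS/MS. Inhibition expressed as a single-point percentage.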

The target in data set [4] is MC4 receptor (Homo sapiens, UniProt P32245). Put plainly: MC4 EC50 functional potency (protocol E of US2005/0176772 / WO 2005/077935). Format: cell-based. On the procedure: The compounds of formula (I) of the present invention have utility as MCR4 agonists in the treatment of various disease states.
MC5 and MC4 EC50 activity was determined as described by assay protocols D and E, respectively, in US2005/0176772 (pages 28-30).

Data set [5] deals with T3, MC3 receptor (MC3R) (Homo sapiens, UniProt P41968).
T3 construct: expressed in transfected cells; host or cells: CHO-CRE MC3R cells (membranes)
Put plainly: Nle4, D-Phe7-α-MSH inhibition at the MC3 receptor (competition binding, SPA, CHO-CRE MC3R membranes). In a few lines: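 Competition binding by SPA used CHO-CRE MC3R membranes on WGA beads with 0.06 nM [125I]Nle4,D-Phe7-α-MSH and 11 half-log competitor concentrations. Buffer was 25 mM HEPES, MgCl2, CaCl2, 1% Pluronic F68, pH7, incubated 12 h at room temperature. Non-specific binding was defined with 100 nM SHU9119, and Ki values were derived.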

T1 sequence (P32245 whole entry): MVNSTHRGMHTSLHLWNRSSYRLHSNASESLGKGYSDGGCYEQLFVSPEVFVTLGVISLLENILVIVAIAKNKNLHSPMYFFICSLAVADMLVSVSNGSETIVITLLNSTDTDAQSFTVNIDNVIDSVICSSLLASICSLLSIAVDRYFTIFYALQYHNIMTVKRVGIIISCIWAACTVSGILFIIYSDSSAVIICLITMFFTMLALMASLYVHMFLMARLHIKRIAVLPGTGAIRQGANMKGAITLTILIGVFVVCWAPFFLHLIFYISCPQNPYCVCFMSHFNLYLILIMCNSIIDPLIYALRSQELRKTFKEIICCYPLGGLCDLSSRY
Sequence of MC4 receptor (P32245 whole entry): as above
T3 sequence (P41968 whole entry): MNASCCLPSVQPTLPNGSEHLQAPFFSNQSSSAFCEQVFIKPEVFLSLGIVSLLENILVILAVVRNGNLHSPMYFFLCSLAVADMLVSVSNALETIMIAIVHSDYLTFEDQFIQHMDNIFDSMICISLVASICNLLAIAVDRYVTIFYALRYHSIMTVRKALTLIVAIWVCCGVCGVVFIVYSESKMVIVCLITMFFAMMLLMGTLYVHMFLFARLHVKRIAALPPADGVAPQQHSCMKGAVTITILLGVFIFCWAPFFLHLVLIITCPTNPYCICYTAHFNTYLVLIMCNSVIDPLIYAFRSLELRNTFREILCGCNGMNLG
T2 sequence (P08684 whole entry, canonical isoform): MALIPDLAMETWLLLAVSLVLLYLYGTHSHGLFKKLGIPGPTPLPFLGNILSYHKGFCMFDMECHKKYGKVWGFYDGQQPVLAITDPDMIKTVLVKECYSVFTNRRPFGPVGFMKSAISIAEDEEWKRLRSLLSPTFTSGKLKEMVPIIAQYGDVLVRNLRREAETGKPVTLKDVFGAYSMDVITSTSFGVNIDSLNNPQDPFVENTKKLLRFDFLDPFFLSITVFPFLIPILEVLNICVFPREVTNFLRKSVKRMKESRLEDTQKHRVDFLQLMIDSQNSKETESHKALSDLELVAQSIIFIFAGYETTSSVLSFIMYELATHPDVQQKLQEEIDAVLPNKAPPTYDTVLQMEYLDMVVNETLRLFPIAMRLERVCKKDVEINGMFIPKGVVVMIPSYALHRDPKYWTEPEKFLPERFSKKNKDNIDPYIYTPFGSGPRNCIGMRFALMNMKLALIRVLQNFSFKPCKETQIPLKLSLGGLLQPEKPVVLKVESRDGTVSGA

Consider `COc1ccc([C@@H]2CN(c3ccc(=O)[nH]n3)C[C@H]2C(=O)N2CCCC(c3ccc(Cl)cc3)N(S(C)(=O)=O)CC2)c(F)c1` (single isomer, unassigned) [Example 113], for which the microsomal CLint at 1 μM in data set [1] was 24.8 µL/min/mg. The Ki in data set [2] stood at 50.5 nM; in data set [5], 1300 nM. The inhibition at 3 µM in data set [3] was determined as 44.3%. The compound also came in with an EC50 in data set [4] of 12.7 nM.

For `COC(=O)N1CCN(C(=O)[C@@H]2CN(c3ccc(C#N)nn3)CC2c2ccc(OC)cc2F)CCCC1c1ccc(Cl)cc1` (stereo in doubt) [Example 106, methyl 8-(4-chlorophenyl)-4-{[(3S,4S)-4-(2-fluoro-4-methoxyphenyl)-1-(6-cyanopyridazin-3-yl)pyrrolidin-3-yl]carbonyl}-1,4-diazocane-1-carboxylate], in data set [1], the microsomal CLint at 1 μM came out at 38 µL/min/mg. Further, the Ki in data set [2] turned out to be 28.5 nM; in data set [5] it was 250 nM. Besides, the inhibition at 3 µM in data set [3] was found to be 66.5%. Further, the EC50 in data set [4] is 6.4 nM.

With `CC(=O)N1CCN(C(=O)[C@@H]2CN(c3ccc4nncn4n3)C[C@H]2c2ccc(Cl)cn2)CCC[C@@H]1c1ccc(Cl)cc1` [Example 5], the microsomal CLint at 1 μM in data set [1] turned out to be 17.4 µL/min/mg. Besides, the Ki in data set [2] came to 226 nM; in data set [5], 1680 nM. Also, in data set [3], the inhibition at 3 µM amounted to 80.4%. The EC50 in data set [4] was 23.2 nM.

`CC(=O)N1CCN(C(=O)[C@@H]2CN(C(C)(C)C)C[C@H]2c2ccc(F)cc2F)CCC[C@H]1c1ccc(Cl)cc1` [Example 8]: the microsomal CLint at 1 μM in data set [1] came out at 17 µL/min/mg. Further, the Ki turned out to be 1010 nM in data set [2] and 11500 nM in data set [5]. In addition, the inhibition at 3 µM in data set [3] turned out to be 23.9%. Besides, the EC50 in data set [4] is 52.1 nM.

On to `COCC(=O)N1CCN(C(=O)[C@@H]2CN(C(C)(C)C)C[C@H]2c2ccc(F)cc2F)CCC[C@H]1c1ccc(Cl)cc1` [Example 9], for which, in data set [1], the microsomal CLint at 1 μM amounted to 44.7 µL/min/mg. In addition, the Ki was determined as 1530 nM in data set [2] and 12600 nM in data set [5]. In addition, the inhibition at 3 µM in data set [3] came to 29.1%. The compound further came in with an EC50 in data set [4] of 52.8 nM.

In the case of `CC(C)(C)N1C[C@@H](C(=O)N2CCC[C@@H](c3ccc(Cl)cc3)N(C(=O)CC(F)(F)F)CC2)[C@H](c2ccc(F)cc2F)C1` [Example 12], the microsomal CLint at 1 μM in data set [1] was 17 µL/min/mg. Also, the Ki in data set [2] was 807 nM; in data set [5], 4150 nM. Moreover, the inhibition at 3 µM in data set [3] was determined as 34%. The compound further yielded an EC50 in data set [4] of 32.8 nM.

As to `CCCC(=O)N1CCN(C(=O)[C@@H]2CN(C(C)(C)C)C[C@H]2c2ccc(F)cc2F)CCC[C@H]1c1ccc(Cl)cc1` [Example 13], the microsomal CLint at 1 μM in data set [1] stood at 37.8 µL/min/mg. Also, the inhibition constant Ki turned out to be 366 nM in data set [2] and 5000 nM in data set [5]. Further, the inhibition at 3 µM in data set [3] worked out at 48.8%. Moreover, the response in data set [4] was half-maximal at 13.8 nM (EC50).

As to `CC(C)CC(=O)N1CCN(C(=O)[C@@H]2CN(C(C)(C)C)C[C@H]2c2ccc(F)cc2F)CCC[C@H]1c1ccc(Cl)cc1` [Example 16], the microsomal CLint at 1 μM in data set [1] came out at 92.6 µL/min/mg. Further, the results for the Ki in data set [2] and in data set [5] were 378 nM and 2100 nM, respectively. Also, the inhibition at 3 µM in data set [3] was found to be 55.5%. The EC50 in data set [4] was found to be 18.5 nM.

Turning to `CC(C)(C)N1C[C@@H](C(=O)N2CCC[C@@H](c3ccc(Cl)cc3)N(C(=O)C3CCCC3)CC2)[C@H](c2ccc(F)cc2F)C1` [Example 17], in data set [1], the microsomal CLint at 1 μM was found to be 118 µL/min/mg. Moreover, the inhibitory constant (Ki) in data set [2] amounted to 513 nM; in data set [5] it was 2780 nM. The inhibition at 3 µM in data set [3] was 66.9%. Besides, the EC50 in data set [4] came to 43.3 nM.

As for `CN(C)C(=O)N1CCN(C(=O)[C@@H]2CN(c3ccc(C#N)nn3)C[C@H]2c2ccc(Cl)cn2)CCC[C@H]1c1ccc(Cl)cc1` [Example 45], in data set [1], the microsomal CLint at 1 μM was 234 µL/min/mg. Further, the inhibition constant (Ki) in data set [2] was 121 nM; in data set [5], 101 nM. The inhibition at 3 µM in data set [3] is 75.8%. The compound also yielded an EC50 in data set [4] of 10.8 nM.

In the case of `COC(=O)N1CCN(C(=O)[C@@H]2CN(c3ccc(=O)[nH]n3)C[C@H]2c2ccc(OC)cc2F)CCC[C@H]1c1ccc(Cl)cc1` [Example 69, methyl 8S-(4-chlorophenyl)-4-{[(3S,4R)-4-(2-fluoro-4-methoxyphenyl)-1-(6-oxo-1,6-dihydropyridazin-3-yl)pyrrolidin-3-yl]carbonyl}-1,4-diazocane-1-carboxylate], the microsomal CLint at 1 μM in data set [1] worked out at 8 µL/min/mg. The Ki in data set [2] turned out to be 16.4 nM; in data set [5], 990 nM. The inhibition at 3 µM in data set [3] was 53%. This compound also displayed an EC50 in data set [4] of 7.6 nM.

For the compound `COC(=O)N1CCN(C(=O)[C@@H]2CN(C(C)(C)C)C[C@H]2c2ccc(OC)cc2F)CCC[C@H]1c1ccc(Cl)cc1` [Example 71], the microsomal CLint at 1 μM in data set [1] stood at 43.4 µL/min/mg. For the same compound, the Ki turned out to be 1050 nM in data set [2] and 10300 nM in data set [5]. Also, in data set [3], the inhibition at 3 µM came to 49.5%. The compound also returned an EC50 in data set [4] of 55.4 nM.

Turning to `COC(=O)N1CCN(C(=O)[C@@H]2CN(c3ccc(C#N)nn3)C[C@H]2c2ccc(Cl)cn2)CCC[C@H]1c1ccc(Cl)cc1` [Example 98, methyl 8S-(4-chlorophenyl)-4-{[(3S,4S)-4-(5-chloropyridin-2-yl)-1-(6-cyanopyridazin-3-yl)pyrrolidin-3-yl]carbonyl}-1,4-diazocane-1-carboxylate], in data set [1], the microsomal CLint at 1 μM was 13.9 µL/min/mg. The results for the inhibition constant Ki in data set [2] and in data set [5] were 52 nM and 201 nM, respectively. For the same compound, in data set [3], the inhibition at 3 µM worked out at 46.9%. For the same compound, a half-maximal response in data set [4] (EC50) required 5.26 nM.

As for `CS(=O)(=O)N1CCN(C(=O)[C@@H]2CN(c3ccc(C#N)nn3)C[C@H]2c2ccc(Cl)cn2)CCC[C@H]1c1ccc(Cl)cc1` [Example 102], in data set [1], the microsomal CLint at 1 μM is 16 µL/min/mg. In addition, the figures for the Ki in data set [2] and in data set [5] were 174 nM and 545 nM, respectively. Further, the inhibition at 3 µM in data set [3] stood at 65%. This compound yielded an EC50 in data set [4] of 12 nM.

As to `COc1ccc([C@@H]2CN(c3ccc(Cl)nn3)C[C@H]2C(=O)N2CCCC(c3ccc(Cl)cc3)N(S(C)(=O)=O)CC2)c(F)c1` (stereo partly drawn) [Example 108, [5-(4-chlorophenyl)-4-(methylsulfonyl)-1,4-diazocan-1-yl]-[(3S,4R)-1-(6-chloro-pyridazine-3-yl)-4-(2-fluoro-4-methoxyphenyl)-pyrrolidin-3-yl]-methanone], the microsomal CLint at 1 μM in data set [1] was found to be 59 µL/min/mg. The inhibition constant (Ki) in data set [2] was 180 nM; in data set [5] it was 875 nM. Besides, in data set [3], the inhibition at 3 µM was 63.5%. In data set [4], the EC50 turned out to be 123 nM.
